Measurements taken from patent US20050113318A1, “Combination of dehydroepiandrosterone or dehydroepiandrosterone-sulfate with a beta-agonist bronchodilator for treatment of asthma or chronic obstructive pulmonary disease” (priority 2003, published 2005).
Several values for one entry are separate records, joined by “and”; a condition that tells them apart may be missing. Equal values may be shown once.

Columns and labels:
Format in all cases: physicochemical
[1] = Particle size of DHEA-S powders (laser diffraction, light microscope); conditions: for mean particle size: spray dried, two batches
Method: Approximately 1 g sample was passed through the jet mill, once, and approximately 2 g sample were passed through the jet mill twice. […] The resulting solution was sonicated for 3 minutes and appeared fully dispersed. The dispersed solutions were tested on a Malvern Mastersizer X with a small volume sampler (SVS) attachment. One sample of dispersed material was tested 5 times. The median particle size or D (v, 0.5) of unmilled material was 52.56 μm and the % RSD (relative standard deviation) was 7.61 for the 5 values. The D (v, 0.5) for a single pass through the jet mill was 3.90 μm and the % RSD was 1.27, and the D (v, 0.5) from a double pass through the jet mill 3.25 μm and the % RSD was 3.10.
The solution was spray-dried with a B-191 Mini Spray-Drier (Buchi, Flawil, Switzerland) with an inlet temperature of 55° C., outlet temperature of 40° C., at 100% aspirator, at 10% pump, nitrogen flow at 40 mbar and spray flow at 600 units. The spray-dried product was suspended in hexane and Span85 surfactant added to reduce agglomeration. The dispersions were sonicated with cooling for 3-5 minutes for complete dispersion and the dispersed solutions tested on a Malvern Mastersizer X with a Small Volume Sampler (SVS) attachment. […] Visual examination by light microscope of the dispersions of each batch confirmed that spray drying produced small respirable size particles. The mean particle size was 2.4 μm and 2.0 μm for each batch, respectively.
Surface area is determined using five point BET analyses are performed with nitrogen as the adsorbing gas (P/Po=0.05 to 0.30) using a Micromeritics TriStar surface area analyzer. Particle size distributions are measured by laser diffraction using a Micromeritics Saturn Digisizer where the particles are suspended in mineral oil th sodium dioctyl sodium sulfosuccinate as a dispersing agent. Drug substance water content is measured by Karl Fischer titration (Schott Titroline KF). Pure water is used as the standard and all relative standard deviations for triplicates are less than 1%. Powder is added directly to the titration media.

[2] = HPLC analysis of drug degradation during jet milling; conditions: single-pass and double-pass vs unmilled standard, HPLC peak area
Method: Two vials (A; single-pass; 150 mg) and (B double-pass; 600 mg) of the micronized drug were available for determining drug degradation during jet milling micronization. […] The chromatographic peak area for the HPLC assay of the unmilled drug standard solution (10 mg/ml) gave a value of 23,427. […] The chromatographic peak areas for vials A and B were 11,979 and 11,677, respectively.

[3] = Emitted dose studies with dry powder inhalers; conditions: for Emitted Dose: single runs
Method: DHEA-S powder was collected in Nephele tubes and assayed by HPLC. Triplicate experiments were performed at each airflow rate for each of the three dry powder inhalers tested (Rotahaler, Diskhaler and IDL's DPI devices). A Nephele tube was fitted at one end with a glass filter (Gelman Sciences, Type A/E, […]), which in turn was connected to the airflow line to collect the emitted dose of the drug from the respective dry powder inhaler being tested. A silicone adapter, with an opening to receive the mouthpiece of the respective dry powder inhaler being tested at the other end of the Nephele tube was secured. A desired airflow, of 30, 60, or 90 L/min, was achieved through the Nephele tube. Each dry powder inhaler's mouthpiece was inserted then into the silicone rubber adapter, and the airflow was continued for about four s after which the tube was removed and an end-cap screwed onto the end of each tube. The end-cap of the tube not containing the filter was removed and 10 ml of an HPLC grade water-acetonitrile solution (1:1) added to the tube, the end-cap reattached, and the tube shaken for 1-2 minutes. The end-cap then was removed from the tube and the solution was transferred to a 10 ml plastic syringe fitted with a filter (Cameo 13N Syringe Filter, Nylon, 0.22 μm). An aliquot of the solution was directly filtered into an HPLC vial for later drug assay via HPLC. […] When the micronized DHEA-S (only vial B used), was weighed for placement into the gelatin capsule or blister, there appeared to be a few aggregates of the micronized powder. […] Table 2 summarizes the results for the Rotahaler experiments at 3 different flow rates, for the Diskhaler experiments at 3 different flow rates, and of the multi-dose experiments at 3 different flow rates.

[4] = Solid-state stability with and without lactose (DHEA formed, HPLC)
From the text: These conditions were used to stress the formulation in order to predict its long-term stability results. […] This color change is accompanied by a significant change in the chromatogram as shown in. FIG. 1. The primary degradant is DHEA. […] The materials on accelerated storage become more cohesive with time as evidenced by clumping during sample weighing for chemical analysis. […] This is a considerable disadvantage since lactose is the most commonly used inhalation excipient for dry powder formulations. Continuing with the virtually anhydrous form would mean limiting formulations to neat powder or undertaking more comprehensive safety studies to use a novel excipient.

[5] = Diskhaler (2nd study), 87.8 L/min
[6] = IDL Multi-Dose (2nd study), 87.8 L/min

C[C@]12CC[C@H](OS(=O)(=O)[O-])CC1=CC[C@@H]1[C@@H]2CC[C@]2(C)C(=O)CC[C@@H]12.[Na+] [Anhydrous DHEA-S]
median particle size D (v, 0.5) ([1]; double pass through the jet mill): 3.25 μm | median particle size D (v, 0.5) ([1]; single pass through the jet mill): 3.90 μm | mean particle size ([1]; Malvern Mastersizer X): 5.07±0.70 μm and 6.66±0.91 μm | mean particle size ([1]; visual examination by light microscope): 2.4 μm and 2.0 μm | median particle size D (v, 0.5) ([1]; unmilled material, Malvern Mastersizer X): 52.56 μm | degradation of the drug during jet milling micronization [2]: no detectable degradation | Emitted Dose, Average [3, 5]: 59.1% | Emitted Dose [3, 5]: 57.9% and 59.9% and 59.5% | Emitted Dose, Average ([3]; Diskhaler, 30 L/min): 58.6% | Emitted Dose ([3]; Diskhaler, 30 L/min): 53.8% and 53.4% and 68.7% | Emitted Dose, Average ([3]; Diskhaler, 60 L/min): 68.2% | Emitted Dose ([3]; Diskhaler, 60 L/min): 63.4% and 38.9% and 58.0% | Emitted Dose, Average ([3]; Diskhaler, 87.8 L/min): 51.3% | Emitted Dose ([3]; Diskhaler, 87.8 L/min): 65.7% and 41.6% and 46.5% | Emitted Dose, Average [3, 6]: 84.8% | Emitted Dose [3, 6]: 85.7% and 84.6% and 84.0% | Emitted Dose, Average ([3]; IDL Multi-Dose, 30 L/min): 85.4% | Emitted Dose ([3]; IDL Multi-Dose, 30 L/min): 78.9% and 88.2% and 89.2% | Emitted Dose, Average ([3]; IDL Multi-Dose, 60 L/min): 84.0% | Emitted Dose ([3]; IDL Multi-Dose, 60 L/min): 78.8% and 83.7% and 89.6% | Emitted Dose, Average ([3]; IDL Multi-Dose, 87.8 L/min): 72.6% | Emitted Dose ([3]; IDL Multi-Dose, 87.8 L/min): 71.3% and 79.0% and 67.4% | Emitted Dose, Average ([3]; Rotahaler (2nd study), 87.8 L/min): 31.5% | Emitted Dose, Average ([3]; Rotahaler, 30 L/min): 34.7% | Emitted Dose, Average ([3]; Rotahaler, 60 L/min): 57.3% | Emitted Dose ([3]; Rotahaler, 60 L/min): 58.1% and 68.2% and 45.7% | Emitted Dose, Average ([3]; Rotahaler, 87.8 L/min): 69.7% | Emitted Dose ([3]; Rotahaler, 87.8 L/min): 73.2% and 67.1% and 68.7% | DHEA % formed ([4]; 50° C., 1 week): 9.817% | DHEA % formed ([4]; 50° C., 2 weeks): 14.954% | DHEA % formed ([4]; 50° C., 4 weeks): 20.171% | DHEA % formed ([4]; Control: neat, sealed vial, 25° C., 1 week): 2.694% | DHEA % formed ([4]; Control: neat, sealed vial, 25° C., 2 weeks): 2.370% | DHEA % formed ([4]; Control: neat, sealed vial, 25° C., 4 weeks): 2.666% | DHEA % formed ([4]; Control: neat, sealed vial, 25° C., first time column (head empty, time 0)): 2.774%
